Assay [1] has as its target T1, rhGBA (recombinant human GBA, Imiglucerase) (Homo sapiens, UniProt P04062, R534H).
T1 construct: purchased Sanofi Genzyme (Cambridge, MA, USA)
T1 sequence (P04062 40-536 R534H): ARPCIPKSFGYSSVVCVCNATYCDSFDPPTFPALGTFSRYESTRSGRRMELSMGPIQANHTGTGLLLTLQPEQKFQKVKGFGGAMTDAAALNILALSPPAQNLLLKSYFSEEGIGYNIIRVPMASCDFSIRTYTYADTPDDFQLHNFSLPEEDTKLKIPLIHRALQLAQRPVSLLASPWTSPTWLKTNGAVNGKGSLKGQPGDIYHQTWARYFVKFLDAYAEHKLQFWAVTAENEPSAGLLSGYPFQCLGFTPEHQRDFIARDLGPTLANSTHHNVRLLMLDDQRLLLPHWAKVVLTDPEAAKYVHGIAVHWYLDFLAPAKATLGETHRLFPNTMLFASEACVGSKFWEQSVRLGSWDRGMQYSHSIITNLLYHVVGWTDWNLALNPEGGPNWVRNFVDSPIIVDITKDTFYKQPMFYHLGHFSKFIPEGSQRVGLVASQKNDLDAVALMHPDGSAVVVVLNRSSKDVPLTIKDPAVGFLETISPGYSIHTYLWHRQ
The assay is described as follows: Fluorogenic substrate (4-MU-β-D-glucoside) enzymatic assay, rhGBA. In kind it is biochemical. Particulars: for IC50: incubation time 30 min, enzymatic assay, ±SD, n=3, read-out: In vitro apparent IC50 rhGBA. The method, then:
(§1) Using fluorogenic substrate‐based assays, we determined apparent IC50 values at 30 min incubation time of the xylo‐cyclophellitols in rhGBA, and GBA2 and GBA3 lysates of cells expressing only each of the enzymes specifically.
(§2) Enzyme activity assays: All assays were performed with lysates of HEK293T cells or zebrafish larvae in 96‐well plates at 37 °C. Samples were diluted with McIlvaine buffer (150 mM citric acid‐Na2HPO4) to a final volume of 25 μL, at pH appropriate for each enzyme. Assays were performed by incubating the samples with 100 μL 4‐methylumbelliferyl‐β‐D‐glucoside substrates diluted in McIlvaine buffer (with 0.1 % (w/v) bovine serum albumin (BSA)) for a period of 30 min or 3 h. The substrate mixtures used for each enzyme were as follows: GBA, 3.75 mM 4‐MU‐β‐D‐glucopyranoside (Glycosynth, Warrington Cheshire, UK) at pH 5.2, supplemented with 0.2 % (w/v) sodium taurocholate, 0.1 % (v/v) Triton X‐100, 0.1 % (w/v) bovine serum albumin (BSA); GBA2, 3.75 mM 4 MU‐β‐D‐glucopyranoside at pH 5.8; GBA3, 3.75 mM 4‐MU‐β‐D‐glucopyranoside at pH 6.0. After stopping the enzyme reaction with 200 μL 1 M NaOH‐glycine (pH 10.3), 4‐methylumbelliferone fluorescence was measured with a fluorimeter LS55 (Perkin Elmer, Waltham, MA, USA) with λEX 366 nm and λEM 445 nm. Enzyme activities were determined by subtraction of background (measured for incubations without enzyme). IC50 values were determined exactly as earlier described.[36]
(§3) The IC50 values were determined using a fluorogenic enzymatic assay. For GBA, 3.16 ng (53 fmol) of rhGBA, (recombinant human GBA, Imiglucerase) obtained from Sanofi Genzyme (Cambridge, MA, USA), was prepared in 12.5 μL McIlvaine buffer (150 mM, pH 5.2) supplemented with 0.1 % (v/v) Triton X‐100, and 0.2 % (w/v) sodium taurocholate, 0.1 % (w/v) bovine serum albumin (BSA). The enzyme was incubated with 12.5 μL of inhibitors diluted in McIlvaine buffer (150 mM, pH 5.2) at 37 °C for 30 min. In the case of GBA2 or GBA3, lysates of GBA/GBA2 KO HEK293T cells overexpressing GBA2 or GBA3, respectively where used. The enzymatic activity of GBA, GBA2 and GBA3 were measured with 4MU‐β‐D‐glucoside substrate as described above.

Another assay deals with T2, GBA3 (Homo sapiens, UniProt Q9H227).
T2 construct: expressed in transfected cells; host or cells: HEK293T (GBA/GBA2 KO background for the fluorogenic assay; endogenous-GBA background with GBA2 and GBA3 overexpressed for ABPP and intact-cell assays)
T2 sequence (Q9H227 1-469): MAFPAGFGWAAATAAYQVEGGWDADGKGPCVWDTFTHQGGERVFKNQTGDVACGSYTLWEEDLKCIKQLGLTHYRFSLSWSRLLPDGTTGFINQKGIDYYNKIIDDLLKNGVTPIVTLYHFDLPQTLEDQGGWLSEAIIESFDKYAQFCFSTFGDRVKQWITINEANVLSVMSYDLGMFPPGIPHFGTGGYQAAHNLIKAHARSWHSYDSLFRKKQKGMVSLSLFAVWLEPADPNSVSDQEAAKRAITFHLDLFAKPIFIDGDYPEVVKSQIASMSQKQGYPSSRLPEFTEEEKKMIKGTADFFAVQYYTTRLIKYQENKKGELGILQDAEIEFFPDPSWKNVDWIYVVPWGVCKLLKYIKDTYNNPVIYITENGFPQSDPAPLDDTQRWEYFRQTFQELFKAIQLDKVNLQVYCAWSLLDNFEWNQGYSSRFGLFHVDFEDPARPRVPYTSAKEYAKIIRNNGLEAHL
The assay is described as follows: Fluorogenic substrate enzymatic assay, lysate of GBA/GBA2 KO HEK293T cells overexpressing GBA3. In kind it is biochemical. The note with it: for (Ratio) GBA3/GBA: IC50 ratio. The method, then:
as §1, §2, §3

Where [2] appears, read: incubation time 30 min, enzymatic assay, ±SD, n=3, read-out: In vitro apparent IC50 GBA3.

Where two headings read alike, the source gives them in different places.

Consider `CN1/C(=C/C=C/C=C/C2=[N+](CCCCCC(=O)NCc3cn(CCCCCCCCN4[C@H]5[C@H](O)[C@@H](O)[C@H](O)C[C@H]54)nn3)c3ccccc3C2(C)C)C(C)(C)c2ccccc21` (stereo partly drawn) [ABP 6], for which the IC50 (as a rule, the concentration needed to halve the response being measured) in assay [1] is 6.44 ± 0.49 nM; on GBA3 (setting [2]), 10.1 ± 1 µM. For the same compound, the “(Ratio) GBA3/GBA” value at GBA3 (in vitro, 30 min) worked out at 1561.

Take `CN1/C(=C/C=C/C=C/C2=[N+](CCCCCC(=O)NCc3cn(C[C@@H]4[C@@H](O)[C@H](O)[C@@H](O)[C@@H]5O[C@H]45)nn3)c3ccccc3C2(C)C)C(C)(C)c2ccccc21` [ABP 9, reference compound]: the IC50 was determined as 45.2 ± 4.54 nM in assay [1] and 5.78 ± 0.079 µM on GBA3 (setting [2]). In addition, the “(Ratio) GBA3/GBA” value on GBA3 (in vitro, 30 min) was found to be 128.

As for `O[C@@H]1[C@@H](O)[C@H](O)C[C@H]2O[C@@H]12` [compound 1, xylo‐cyclophellitol], the IC50 is 2670 ± 94.5 nM in assay [1]; more than 25 µM on GBA3 (30 min incubation time, read-out: apparent IC50 GBA3); more than 50 µM at GBA3 (setting [2]). At GBA3 (in vitro, 30 min), the “(Ratio) GBA3/GBA” value is given as more than 19.

With `O[C@@H]1[C@@H](O)[C@H](O)C[C@H]2N[C@@H]12` [compound 2, β‐D‐xylo‐Cyclophellitol aziridine], the IC50 was 719 ± 196 nM in assay [1] and more than 25 µM on GBA3 (setting [2]). For the same compound, the “(Ratio) GBA3/GBA” value at GBA3 (in vitro, 30 min) is more than 35.

In the case of `OC[C@@H]1[C@@H](O)[C@H](O)[C@@H](O)[C@@H]2O[C@H]12` [compound 3, cyclophellitol], the IC50 amounted to 400 ± 12.4 nM in assay [1] and 51.5 ± 4.01 µM at GBA3 (setting [2]). Moreover, the “(Ratio) GBA3/GBA” value at GBA3 (in vitro, 30 min) is given as 129.

On to `OC[C@@H]1[C@@H](O)[C@H](O)[C@@H](O)[C@@H]2N[C@H]12` [compound 4, cyclophellitol aziridine, reference compound], for which the IC50 in assay [1] was 341 ± 5.82 nM; on GBA3 (setting [2]), 33.8 ± 2.43 µM. Also, the “(Ratio) GBA3/GBA” value on GBA3 (in vitro, 30 min) is 99.

With `[N-]=[N+]=NCCCCCCCCN1[C@H]2[C@H](O)[C@@H](O)[C@H](O)C[C@H]21` (stereo partly drawn) [compound 5], the “potency against GBA compared to unsubstituted xylo-cyclophellitol aziridine 2” value in assay [1] (in vitro, 30 min) is given as 600 fold. The IC50 in assay [1] was found to be 1.2 ± 0.06 nM. Besides, at GBA3 (in vitro, 30 min), the “(Ratio) GBA3/GBA” value was found to be 486 and the “potency against GBA3 compared to unsubstituted xylo-cyclophellitol aziridine 2” value is recorded as more than 40 fold. In addition, the IC50 on GBA3 (setting [2]) came out at 0.583 ± 0.202 µM.

These data come from article PMC8596838, “Xylose‐Configured Cyclophellitols as Selective Inhibitors for Glucocerebrosidase” (Chembiochem, 2021).
